Drawing on patent US20240294551A1 (AMGEN INC., priority 2022, published 2024), this text covers IC50 for 18 molecules.

Where two headings read alike, the source gives them in different places.

Assay [1] relates to Phosphorylation of ERK1/2 in AsPC-1 cells. The assay can be described thus: Phospho-ERK1/2 MSD Assay. Type of assay: cell-based, human. As to conditions: Homo sapiens, ASPC1, 2 h. As to the method: AsPC-1 (ATCC® CRL-1682™) cells were cultured in RPMI 1640 Medium (ThermoFisher Scientific 11875093) containing 10% fetal bovine serum (ThermoFisher Scientific 16000044) and 1× penicillin-streptomycin-glutamine (ThermoFisher Scientific 10378016). Sixteen hours prior to compound treatment, AsPC-1 cells were seeded in 96-well cell culture plates at a density of 25,000 cells/well and incubated at 37° C., 5% CO2. A compound dose-response titration was diluted in growth media, added to appropriate wells of a cell culture plate, and then incubated at 37° C., 5% CO2 for 2 hours. Following compound treatment, cells were washed with ice-cold Dulbecco's phosphate-buffered saline, no Ca^2+ or Mg^2+ (ThermoFisher Scientific 14190144), and then lysed in RIPA buffer (50 mM Tris-HCl pH 7.5, 1% Igepal, 0.5% sodium deoxycholate, 150 mM NaCl, and 0.5% sodium dodecyl sulfate) containing protease inhibitors (Roche 4693132001) and phosphatase inhibitors (Roche 4906837001). Phosphorylation of ERK1/2 in compound-treated lysates was assayed using Phospho-ERK1/2 Whole Cell Lysate kits (Meso Scale Discovery K151DWD) according to the manufacturer's protocol. Assay plates were read on a Meso Scale Discovery Sector Imager 6000, and data were analyzed using a 4-parameter logistic model to calculate IC50 values.

Assay [2] deals with GDP-bound KRAS protein (aa 1-169), containing both G12D and C118A amino acid substitutions (Homo sapiens (Human), UniProt P01116, C118A/G12D). In words: KRAS G12D Coupled Nucleotide Exchange Assay. Type of assay: biochemical.
In assay [3] the target is His-tagged KRAS G12D protein (Homo sapiens (Human), UniProt P01116, G12D). The assay can be described thus: KRAS G12D TR-FRET Assay. Type of assay: binding. A digest of the protocol:
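Each incubation ran at room temperature: enzyme with compound for 30 minutes, peptide for one hour, and detection reagents (0.4 nM europium anti-6×His, 5 nM streptavidin-d2) for one hour more. Protein and peptide stocks were each diluted to 20 nM before addition.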
Background: Time-resolved FRET reads energy transfer from a long-lived donor to a nearby acceptor.

[4] abbreviates: read-out: 2 h p-ERK (AsPC-1 cells), IC50.
Setting [5] is: read-out: KRAS G12D Coupled Exchange IC50.
Setting [6] is: read-out: KRAS G12D Binding IC50.
The mark [7] stands for this setting: read-out: 2 h p-ERK (AsPC-1 cells).
[8] abbreviates: 2 hours compound pre-incubation, read-out: KRAS G12D Coupled Exchange.
The mark [9] stands for this setting: TR-FRET, read-out: KRAS G12D Binding.

His-tagged KRAS G12D protein, sequence (P01116 other isoform, or with tags, fused parts or gaps G12D): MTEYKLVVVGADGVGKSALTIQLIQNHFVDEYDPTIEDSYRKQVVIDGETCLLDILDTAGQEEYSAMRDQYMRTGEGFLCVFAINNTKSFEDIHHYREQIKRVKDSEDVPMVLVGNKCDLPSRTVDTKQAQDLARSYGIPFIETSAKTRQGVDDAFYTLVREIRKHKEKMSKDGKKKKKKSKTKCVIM
GDP-bound KRAS protein (aa 1-169), containing both G12D and C118A amino acid substitutions, sequence (P01116 other isoform, or with tags, fused parts or gaps G12D/C118A): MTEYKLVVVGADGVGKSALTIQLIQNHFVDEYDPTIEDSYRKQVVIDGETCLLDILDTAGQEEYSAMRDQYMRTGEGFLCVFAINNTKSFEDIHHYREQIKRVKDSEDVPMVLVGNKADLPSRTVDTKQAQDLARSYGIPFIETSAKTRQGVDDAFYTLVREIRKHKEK

As for `Cc1c2ncc3c(nc(OCC4CN(C)CCO4)nc13)N1CCC[C@](C)(C1)NC(=O)CCCc1c(F)ccc3cc(O)cc-2c13` (mixture of isomers) [Example 24], the IC50 in assay [1] (setting [4]) was 1140 nM; in assay [2] (setting [5]) it was 18 nM; in assay [3] (setting [6]), 20 nM.
As to `Cc1cc2[nH]ncc2c2c1CCC[C@H](F)C(=O)N[C@@H]1CCCN(C1)c1nc(OC[C@@]34CCCN3C[C@H](F)C4)nc3c(F)c-2ncc13` (mixture of isomers) [Example 49, (17R)-14,30-difluoro-24-(((2R,7aS)-2-fluorotetrahydro-1H-pyrrolo[1,2-a]pyrrol-7a(5H)-yl)methoxy)-9-methyl-5,6,16,21,23,25,29-heptaazahexacyclo[24.3.1.1~17,21~.0~2,10~.0~3,7~.0~22,27~]hentriaconta-1(30),2,4,7,9,22,24,26,28-nonaen-15-one], the IC50 in assay [1] (setting [4]) was found to be 116 nM; in assay [2] (setting [5]), 5 nM; in assay [3] (setting [6]), 7 nM.
For `Cc1cc2[nH]ncc2c2c1CCCC(F)C(=O)N[C@@H]1COCCN(C1)c1nc(OC[C@@]34CCCN3C[C@H](F)C4)nc3c(F)c-2ncc13` (mixture of isomers) [Example 55] the same measures were 1380 nM, 14 nM and 19 nM.
For `Cc1cc2[nH]ncc2c2c1CCCCC(=O)N[C@]1(C)COCCN(C1)c1nc(OC[C@@]34CCCN3C[C@H](F)C4)nc3c(F)c-2ncc13` (mixture of isomers) [Example 67] the same measures were 1660 nM, 34 nM and 46 nM.
Consider `Cc1cc2[nH]ncc2c2c1CCCOC(=O)N1CC[C@@H]3CCN(C[C@@H]31)c1nc(OC[C@@]34CCCN3C[C@H](F)C4)nc3c(F)c-2ncc13` (mixture of isomers) [Example 75, (28S,32R)-33-fluoro-4-(((2R,7aS)-2-fluorotetrahydro-1H-pyrrolo[1,2-a]pyrrol-7a(5H)-yl)methoxy)-18-methyl-23-oxa-1,3,5,9,14,15,25-heptaazaheptacyclo[23.5.2.1~6,10~.0~2,7~.0~11,19~.0~12,16~.0~28,32~]tritriaconta-2,4,6,8,10(33),11,13,16,18-nonaen-24-one], for which the IC50 in assay [1] (setting [4]) was found to be 213 nM.
Turning to `Cc1cc2[nH]ncc2c2c1CCCC(=O)OCC1(O)CCCN(C1)c1nc(OC[C@@]34CCCN3C[C@H](F)C4)nc3c(F)c-2ncc13` (mixture of isomers) [Example 103], the IC50 in assay [1] (setting [4]) stood at 1990 nM; in assay [2] (setting [5]) it was 32 nM; in assay [3] (setting [6]), 31 nM.
For `CC12CN(CCO1)c1nc(OC[C@@]34CCCN3C[C@H](F)C4)nc3c(F)c(ncc13)-c1c(c(Cl)cc3[nH]ncc13)CCCc1nc2co1` (mixture of isomers) [Example 380], the figures for the IC50 in assay [1] (setting [7]), in assay [2] (setting [8]) and in assay [3] (setting [9]) were 1690 nM, 29 nM and 155 nM, respectively.
With `Fc1c2ncc3c(nc(OC[C@@]45CCCN4C[C@H](F)C5)nc13)N1CCC[C@H](C1)Cn1ncc(n1)[C@@H]1C[C@@H]1c1c(Cl)cc3[nH]ncc3c1-2` (mixture of isomers) [Example 383], the results for the IC50 in assay [1] (setting [7]), in assay [2] (setting [8]) and in assay [3] (setting [9]) were 75.4 nM, 8 nM and 13 nM, respectively.
Regarding `Cc1cc2[nH]ncc2c2c1CCCOC(=O)O[C@@H]1C[C@H](F)CN(C1)c1nc(OC[C@@]34CCCN3C[C@H](F)C4)nc3c(F)c-2ncc13` (racemic) [Example 95], the IC50 in assay [1] (setting [4]) is 2460 nM; in assay [2] (setting [5]) it was 36 nM; in assay [3] (setting [6]), 38 nM.
As for `Cc1cc2[nH]ncc2c2c1CCCOC(=O)OC1CC[C@@H]3CC[C@H]1N3c1nc(OC[C@@]34CCCN3C[C@H](F)C4)nc3c(F)c-2ncc13` (racemic) [Example 96], the IC50 in assay [1] (setting [4]) was determined as 1380 nM; in assay [2] (setting [5]), 54 nM; in assay [3] (setting [6]), 67 nM.
For `Cc1cc2[nH]ncc2c2c1[C@H]1C[C@@H]1COC(=O)O[C@@H]1CCCN(C1)c1nc(OC[C@@]34CCCN3C[C@H](F)C4)nc3c(F)c-2ncc13` (racemic) [Example 114] the same measures were 346 nM, 12 nM and 19 nM.
Consider `O=C1OCCCc2c(Cl)cc3[nH]ncc3c2-c2ncc3c(nc(OC[C@@]45CCCN4C[C@H](F)C5)nc3c2F)N2C[C@H]3C[C@H]3[C@H](C2)O1` (racemic) [Example 179], for which the IC50 stood at 78.8 nM in assay [1] (setting [4]), 5 nM in assay [2] (setting [5]) and 9 nM in assay [3] (setting [6]).
In the case of `O=C1N[C@H]2CC[C@@H](O)CN(C2)c2nc(OC[C@@]34CCCN3C[C@H](F)C4)nc3c(F)c(ncc23)-c2c(c(Cl)cc3[nH]ncc23)CCCO1` (racemic) [Example 283, (26S,29R)-18-chloro-32-fluoro-4-(((2R,7aS)-2-fluorotetrahydro-1H-pyrrolo[1,2-a]pyrrol-7a(5H)-yl)methoxy)-29-hydroxy-23-oxa-1,3,5,9,14,15,25-heptaazahexacyclo[24.4.1.1~6,10~.0~2,7~.0~11,19~.0~12,16~]dotriaconta-2,4,6(32),7,9,11,13,16,18-nonaen-24-one], the IC50 in assay [1] (setting [4]) turned out to be 10000 nM; in assay [2] (setting [5]), 1000 nM; in assay [3] (setting [6]), 3270 nM.
For `O=C1OC/C=C/c2c(Cl)cc3[nH]ncc3c2-c2ncc3c(nc(OC[C@@]45CCCN4C[C@H](F)C5)nc3c2F)N2CCC[C@H](C2)O1` (single isomer, unassigned) [Example 116] the same measures were 270 nM, 12 nM and 17 nM.
The matching figures for `Cc1cc2[nH]ncc2c2c1CCCC(F)C(=O)N[C@@H]1CCCCN(C1)c1nc(OC[C@@]34CCCN3C[C@H](F)C4)nc3c(F)c-2ncc13` (single isomer, unassigned) [Example 159]: 79.6 nM, 5 nM and 6 nM.
The matching figures for `Cc1cc2[nH]ncc2c2c1C[C@@H](C)COC(=O)O[C@@H]1CCCN(C1)c1nc(OC[C@@]34CCCN3C[C@H](F)C4)nc3c(F)c-2ncc13` (single isomer, unassigned) [Example 214]: 496 nM, 18 nM and 22 nM.
On to `Cc1cc2[nH]ncc2c2c1C[C@H](C)COC(=O)O[C@@H]1CCCN(C1)c1nc(OC[C@@]34CCCN3C[C@H](F)C4)nc3c(F)c-2ncc13` (single isomer, unassigned) [Example 215], for which the IC50 in assay [1] (setting [4]) came to 108 nM; in assay [2] (setting [5]), 12 nM; in assay [3] (setting [6]), 15 nM.
Take `O=C1OCCc2c(Cl)cc3[nH]ncc3c2-c2ncc3c(nc(OC[C@@]45CCCN4C[C@H](F)C5)nc3c2F)N2CCC[C@@]3(C[C@H](CO3)O1)C2` [Example 314, (1R,4R)-11-chloro-33-fluoro-25-(((2R,7aS)-2-fluorotetrahydro-1H-pyrrolo[1,2-a]pyrrol-7a(5H)-yl)methoxy)-2,5,7-trioxa-14,15,20,24,26,28-hexaazaheptacyclo[26.3.1.1~1,4~.1~19,23~.0~10,18~.0~13,17~.0~22,27~]tetratriaconta-10,12,15,17,19(33),20,22,24,26-nonaen-6-one]: the IC50 in assay [1] (setting [4]) is 590 nM.
